Series [1] has as its system ABCG1. Description: qRT-PCR of LXR target gene ABCG1 in RAW264.7 macrophages. The format is cell-based. Conditions: vehicle-treated cells set to 1. The protocol: RAW264.7 cells were obtained from the National Infrastructure of Cell Line Resource of Beijing, China, and the cells used for the experiment were cultured for at least three passages. Dulbecco’s Modified Eagle’s Medium (DMEM)-F12 medium containing 10% fetal bovine serum (FBS) was employed to culture the RAW264.7 cells. RAW264.7 cells were incubated at 37°C with 5% carbon dioxide. The RAW264.7 cells were plated at 2.5×10^5 cells/well (6-well plates), 6.0×10^4 cells/well (24-well plates), and 10^4 cells/well (96-well plates). The RAW264.7 cells were plated and grown overnight; then the medium was removed and fresh DMEM-F12 contained with 0.1% DMSO (control; n=3 ) or TPHP at the concentrations of 1–20,000 nM ( n=3 per group) was added. […] Then the cells were used for the quantitative reverse transcription (qRT)-PCR, cellular cholesterol efflux assay, and foam cell formation experiment.
Total RNA was isolated from RAW264.7 cells and mouse peritoneal macrophages using TRIzol reagent according to the manufacturer’s instructions. Then a Nanovue Plus™ spectrophotometer (GE Healthcare Life Science) was used to analyze the concentration, quality, and purity of the RNA. Total RNA ( 1μg ) was mixed with oligo deoxythymine (dT) ( 1μL ) at 70°C for 5 min and then combined with a mixture containing Moloney murine leukemia virus (MMLV) reverse transcriptase ( 1μL ), deoxy-ribonucleoside triphosphate (dNTP) ( 1.25μL ), Recombinant RNasin® Ribonuclease Inhibitor (Promega) ( 0.65μL ), and MMLV buffer ( 5μL ) at 42°C for 60 min. The SYBR® Green PCR Kit (TOYOBO) was used for RT-PCR analysis. Real-time fluorescence detection was performed using the StepOnePlus™ sequence detection system (Applied Biosystems). […] The following primers were designed and purchased from Sangon Biotech:
• actin: 5′-[…]-3′ and 5′-[…]-3′ ATP-binding cassette transporter A1 (ABCA1): 5′-[…]-3′ and 5′-[…]-3′ • ATP-binding cassette transporter G1 (ABCG1): 5′-[…]-3′ and 5′-[…]-3′.
(In general: Real-time PCR tracks product formation cycle by cycle.)

Series [2] deals with T1, human LXRβ (Homo sapiens, UniProt P55055).
T1 sequence (P55055 219-460): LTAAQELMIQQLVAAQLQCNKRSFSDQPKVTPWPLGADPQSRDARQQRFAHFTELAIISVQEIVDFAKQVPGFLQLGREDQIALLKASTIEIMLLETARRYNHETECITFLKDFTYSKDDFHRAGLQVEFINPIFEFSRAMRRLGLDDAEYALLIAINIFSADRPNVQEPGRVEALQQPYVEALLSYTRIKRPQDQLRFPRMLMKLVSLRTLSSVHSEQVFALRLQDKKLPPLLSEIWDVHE
Description: Yeast two-hybrid assay (LXRβ LBD with coactivator TIF2, β-galactosidase readout).

The nature of series [3]: Body weight of ApoE−/− mice. The format is in vivo, mouse. Conditions: 10 and 40 mg/kg BW, 13 weeks. From the text:
All experiments related to animals were approved by the institutional animal care and use committee of Peking University and followed the guidelines for animal experiments of the university as well as for experimental animals in China. The biological effect size of the animal experiments was based on the previous paper ([Negro Silva et al. 2017]). C57BL/6 (12 weeks old) and ApoE^−/− mice (12 weeks old) were obtained from the Beijing Vital River Laboratory Animal Technology Company. Mice used in the experiments were acclimated to the housing unit 2 weeks before they were used for experiments, and they were randomly assigned to control or TPHP treatment groups. Five animals were housed to a cage, and mice were acclimatized to the controlled environment (temperature: 22±2°C; relative humidity: 40–60%; artificial lighting: 12 h:12 h light/dark). Mice received diet and drinking water ad libitum. Body weight (BW) was measured every week during the dosing period. Forty-five C57BL/6 mice and 27 ApoE^−/− mice were used in this study. […] Considering that this study assessed the effects of short-term exposure to TPHP, whereas humans are exposed to TPHP over a lifelong period, the present study used exposure doses that were higher than that of human exposure from house dust. […]

For the compound `O=P(Oc1ccccc1)(Oc1ccccc1)Oc1ccccc1` [TPHP, triphenyl phosphate], the “ABCG1 gene expression relative to control” value in series [1] (100 nM, p<0.05) came out at 0.87±0.05 fold; in series [1] (1,000 nM, p<0.05) it was 0.80±0.06 fold; in series [1] (5,000 nM, p<0.01) it was 0.52±0.02 fold; in series [1] (10,000 nM, p<0.01) it was 0.42±0.05 fold; in series [1] (20,000 nM, p<0.01), 0.28±0.02 fold. Moreover, in series [2] (dust standard reference material SRM2585), the “Contribution to the LXRβ-antagonist activity of SRM2585” value is given as 12.68%. Further, in series [2] (range over indoor dust samples (Table S4)), the “Share of the LXRβ-antagonist activity of indoor dust explained by the chemical” value is 0.37–32.60%. Also, in series [3], the “Body weight versus control” value was “No significant differences”.
